Here are results for 1 molecule from patent US7846434B2, “Materials and methods for improved immunoglycoproteins” (Trubion Pharmaceuticals, Inc., priority 2006, dated 2010).

Where “and” joins values, the source holds several entries; their conditions need not be identical. Equal values may be shown once.

In one experiment the test system is CD16 (Fcγ RIII). Kind of experiment: Binding of SMIP bound on WIL2-S cells to soluble FcγR-MIg fusion (CD16), flow cytometry. (In flow cytometry, cells or beads pass a laser one at a time.)
The next experiment concerns BJAB B cells. Kind of experiment: ADCC, 51Cr-labeled BJAB B cells with human PBMC effectors. It is filed as cell-based. How it is done: To determine the ADCC activity of purified TRU-016, labeled BJAB B cells were used as targets and human peripheral blood mononuclear cells (PBMC) as effector cells. BJAB B cells (10^7 cells) were labeled with 500 μCi/mL ^51Cr sodium chromate for 2 hours at 37° C. in IMDM/10% FBS. PBMCs were isolated from heparinized, human whole blood by fractionation over Lymphocyte Separation Media (LSM, ICN Biomedical) gradients. Reagent samples were added to RPMI media with 10% FBS and serial dilutions of each reagent were prepared. The ^51Cr labeled BJAB were added at 2×10^4 cells/well. The PBMCs were then added at 5×10^5 cells/well for a final ratio of 25:1 effectors (PBMC):targets (BJAB). Reactions were set up in quadruplicate wells of a 96 well plate. Reactions were allowed to proceed for 6 hours at 37° C. in 5% CO2 prior to harvesting and counting. CPM released was measured on a Packard TopCounNXT from 50 μl dried culture supernatant. Percent specific killing was calculated by subtracting (cpm [mean of quadruplicate samples] of sample−cpm spontaneous release)/(cpm maximal release−cpm spontaneous release)×100, and data were plotted as % specific killing versus TRU-016 concentration.

A further experiment concerns CD37. Kind of experiment: Binding of TRU-016 to CD37 expressing Daudi cells. The arrangement: species or system human. The protocol:
The cells are then incubated with a FITC-conjugated goat anti-human IgG Fc specific antibody (Caltag H10501). This antibody will bind to the Fc region of the human IgG chain of TRU-016 bound to the cells. The antibody is diluted 1:50 in FACS buffer and 100 μL is added to each well. The plate is incubated at 4° C. in the dark for 45 minutes. Any unbound FITC-labeled antibody is removed by adding 100 μL of FACS buffer to each well, centrifuging at 250×g for 3 minutes at 15° C. followed by removal of supernatant. This is followed by a second wash with 200 μL/well FACS buffer. The cells are resusupended with 200 μL/well 2% paraformaldehyde and stored at 4° C. overnight. Each sample's bound fluorescence is measured on a BD FACSCalibur flow cytometry system and analyzed using Cell Quest Pro software (Becton Dickinson, ver 5.2). The GeoMean fluorescence intensity for each sample is plotted relative to the TRU-016 concentration. A dose response curve is generated and fit to a 4-parameter logistic (4-PL) curve using the SoftMax Pro software (Molecular Devices, ver 5.0.1). Titrations of TRU-016 are utilized to create a dose response curve of the untreated control and CS treated samples for comparison.

Experiment [1] has as its system DG44 CHO cells transfected with TRU-016. Kind of experiment: Effect of castanospermine on DG44 CHO TRU-016 production, 3 L bioreactors. It is filed as cell-based, Chinese hamster. The conditions noted are these: for TRU-016 Produced as a % of Control: control average 427.7 ug/mL; for Viability at Harvest (%): harvest day 8. The protocol: Prior to growth in bioreactors, DG44 CHO cells transfected with TRU-016 were grown in the absence of castanospermine in vented shake flasks as described in Example 8.
For the bioreactor run, 3 L Applikon bioreactors were used. Growth media for cells was as described in Example 8 except that there was no methotrexate present. Starting culture volume for each bioreactor was 1700 mLs with a starting density of 3.5×10^5 cells/mL. A total of eight bioreactors were run in pairs with CS at 0 μM, 300 μM, 350 μM and 400 μM final concentration (one of the 400 μM CS bioreactors was lost to contamination on day 2 of culture). Castanospermine was added at the initiation of culture in the bioreactors with no further addition during the culture period. Other culture conditions included a temperature set point of 37° C., pH set point of 6.9 and dissolved O2 set point of 50%. Bioreactors were run in a fed-batch mode with L-glutamine and glucose added on an as needed basis. Soy hydrolysate (CHO Feed Bioreactor Supplement—C1615—Sigma) was added at 1% of starting culture volume on days 2, 4 and 6. Bioreactors were sampled daily for viable cell density, percent viable cells, media chemistries and osmolality. All cultures were harvested on day 8 when overall cell viability ranged from 39-50%.

Method for CD16 (Fcγ RIII): The assays were carried out as follows. […] The cells were then incubated with the desired FcγR-MIg fusion in the same diluent at a concentration of 1 μg/ml on ice for 45 minutes.
The complexes (WIL2-S cells/SMIP/FcγR-MIg) were then incubated with PE conjugated AffiniPure F(Ab′)2 Goat Anti-Mouse IgG [Jackson Immunoresearch] (a mouse Fc-specific antibody with minimal cross reactivity with human Fc) at a 1:100 dilution. The cells were analyzed by one-color flow cytometry on a FACsCalibur using CellQuest software (Becton Dickinson).
If TRU-016 supernatants from Example 2 were used in this assay instead of purified TRU-016 protein, the SMIP concentration in the supernatant was quantified by direct staining of WIL2-S cells with diluted supernatant along with a TRU-016 standard. TRU-016 was detected by staining with FITC conjugated F(Ab′)2 Goat Anti-Human (gamma) [Caltag H10101] at a 1:50 dilution.

`O[C@H]1[C@H](O)[C@@H](O)CN2CC[C@H](O)[C@H]12` [castanospermine]: in the experiment on CD16 (Fcγ RIII) (CHO cells cultured with 0, 10, 25, 50, 100 or 200 μM castanospermine), the “CD16 binding of Protein A-purified TRU-016 (mean fluorescence intensity)” value was “dose-dependent increase”. The “CD16 binding of TRU-015 purified protein (geometric mean fluorescence intensity)” value in the experiment with CD16 (Fcγ RIII) (low affinity allele, CHO cells cultured with 0, 2, 5, 10, 30 or 100 μg/mL castanospermine) is listed as “dose-dependent increase”. In addition, in the experiment on BJAB B cells (0, 10, 25, 50, 100 or 200 μM castanospermine in culture media), the “ADCC activity of TRU-016 purified protein (% specific killing)” value was “dose-dependent increase”. Also, the “ADCC activity of TRU-015 purified protein (% specific killing)” value in the experiment with BJAB B cells (0-100 μg/mL castanospermine in culture media, PBMC from high affinity (V/V158) and low affinity (F/F158) CD16 donors) is given as “dose-dependent increase”. Also, in the experiment on BJAB B cells (culture media containing 200 μM DMJ, 10 μM kifenunsine or 200 μM castanospermine), the “ADCC of TRU-016 purified protein (% specific killing)” value is recorded as “improved”. In addition, the “binding of TRU-016 to CD37 expressing cells (dose response curves)” value in the experiment on CD37 (CHO-K1 produced glycovariants vs control) is “did not alter”. In addition, the “binding of TRU-016 to CD37 expressing cells (dose response curves)” value in the experiment on CD37 (DG44 CHO produced, all CS treated samples vs untreated) is on record as “did not alter”. Further, in experiment [1] (CS 300 μM, listed as CS), the “TRU-016 Produced as a % of Control” value was 68.0% and 75.1%; the “Viability at Harvest (%)” value is 48.8% and 42.4%; the “ICA (10^6 cells * days/mL)” value is 47.5 10^6 cells * days/mL and 46.2 10^6 cells * days/mL; the “Specific Productivity (pg/cell/day)” value is 6.12 pg/cell/day and 6.96 pg/cell/day. The “TRU-016 Produced” value in experiment [1] (CS 300 μM, listed as CS) is 291.0 µg/mL and 321.3 µg/mL. Further, in experiment [1] (CS 350 μM, listed as CS), the “TRU-016 Produced as a % of Control” value was 73.6% and 74.4%; the “Viability at Harvest (%)” value was 39.0% and 41.6%; the “ICA (10^6 cells * days/mL)” value was 46.6 10^6 cells * days/mL and 45.5 10^6 cells * days/mL; the “Specific Productivity (pg/cell/day)” value is 6.75 pg/cell/day and 7.00 pg/cell/day. Besides, the “TRU-016 Produced” value in experiment [1] (CS 350 μM, listed as CS) is 314.7 µg/mL and 318.1 µg/mL. Further, in experiment [1] (CS 400 μM), the “ICA (10^6 cells * days/mL)” value is recorded as 47.9 10^6 cells * days/mL, the “Specific Productivity (pg/cell/day)” value amounted to 6.49 pg/cell/day, the “TRU-016 Produced” value was 311.0 µg/mL and the “TRU-016 Produced as a % of Control” value was 72.7%. Further, the “Viability at Harvest (%)” value in experiment [1] (CS 400 μM) came to 50.4%. The “suppression of TRU-016 production relative to non-treated control bioreactors” value in experiment [1] (CS 300-400 μM) is 24.9-32%. Also, the “cell growth and viability in the bioreactors” value in experiment [1] (CS 300-400 μM vs no CS) was “quite comparable”.
